In ChEMBL document CHEMBL3885861, “Open TG-GATES”:

Organism: Rattus norvegicus
Experiment: Open TG-GATES - Regimen: Daily Repeat
Format: toxicity, organism-based, Sprague-Dawley
Parameters: regimen Daily Repeat, gender Male, age 6 weeks
Conditions: in vivo, po, 0 mg/kg, route gavage, dose level Control; for APTT / Bas / Eos / Fbg / Hb / Ht / Lym / MCH / MCHC / MCV / Mono / Neu / PT / Plat / RBC / Ret / WBC: tissue Blood; for KIDNEY_L / KIDNEY_R / KIDNEY_TOTAL: tissue Kidney; for LIVER: tissue Liver; for ALP / ALT / AST / BUN / CRE / DBIL / GLC / IP / K / LDH / Na / PL / RALB / TBIL / TC / TP / gamma-GTP / TG: tissue Plasma

Compound: Clc1ccccc1CN1CCc2sccc2C1 [TICLOPIDINE]
- TERMINAL_BW (72 h, time 3 day): 230.2 g
- APTT (72 h, time 3 day): 20.4 s
- Bas (72 h, time 3 day): 0.6%
- Eos (72 h, time 3 day): 1%
- Fbg (72 h, time 3 day): 211 mg/dL
- Hb (72 h, time 3 day): 13.6 g/dL
- Ht (72 h, time 3 day): 38.2%
- Lym (72 h, time 3 day): 77.6%
- MCH (72 h, time 3 day): 21.9 pg
- MCHC (72 h, time 3 day): 35.8%
- MCV (72 h, time 3 day): 61.3 fL
- Mono (72 h, time 3 day): 3.2%
- Neu (72 h, time 3 day): 17%
- PT (72 h, time 3 day): 11.7 s
- Plat (72 h, time 3 day): 127.8 x10_4/uL
- RBC (72 h, time 3 day): 622.6 x10_4/ul
- Ret (72 h, time 3 day): 6.2%
- WBC (72 h, time 3 day): 129 x10_2/uL
- KIDNEY_L (72 h, time 3 day): 1.1 g
- KIDNEY_R (72 h, time 3 day): 1 g
- KIDNEY_TOTAL (72 h, time 3 day): 2.1 g
- LIVER (72 h, time 3 day): 11.1 g
- ALP (72 h, time 3 day): 1033.4 IU/L
- ALT (72 h, time 3 day): 42.8 IU/L
- AST (72 h, time 3 day): 70.2 IU/L
- BUN (72 h, time 3 day): 17 mg/dL
- CRE (72 h, time 3 day): 0.4 mg/dL
- DBIL (72 h, time 3 day): 0.07 mg/dL
- GLC (72 h, time 3 day): 205.4 mg/dL
- IP (72 h, time 3 day): 8.6 mg/dL
- K (72 h, time 3 day): 4.4 meq/L
- LDH (72 h, time 3 day): 128.8 IU/L
- Na (72 h, time 3 day): 141.6 meq/L
- PL (72 h, time 3 day): 148.6 mg/dL
- RALB (72 h, time 3 day): 3.4 g/dL
- TBIL (72 h, time 3 day): 0.1 mg/dL
- TC (72 h, time 3 day): 69.8 mg/dL
- TP (72 h, time 3 day): 5.5 g/dL
- gamma-GTP (72 h, time 3 day): 1.2 IU/L
- TERMINAL_BW ([…], time 7 day): 252.6 g
- TERMINAL_BW ([…], time 14 day): 313.6 g
- TERMINAL_BW ([…], time 28 day): 400.8 g
- APTT ([…], time 7 day): 20.7 s
- Bas ([…], time 7 day): 1%
- Eos ([…], time 7 day): 1%
- Fbg ([…], time 7 day): 224.2 mg/dL
- Hb ([…], time 7 day): 14 g/dL
- Ht ([…], time 7 day): 38.4%
- Lym ([…], time 7 day): 81.6%
- MCH ([…], time 7 day): 21.3 pg
- MCHC ([…], time 7 day): 36.4%
- MCV ([…], time 7 day): 58.5 fL
- Mono ([…], time 7 day): 2.4%
- Neu ([…], time 7 day): 13.4%
- PT ([…], time 7 day): 11.4 s
- Plat ([…], time 7 day): 127 x10_4/uL
- RBC ([…], time 7 day): 658 x10_4/ul
- Ret ([…], time 7 day): 4.7%
- WBC ([…], time 7 day): 103.5 x10_2/uL
- APTT ([…], time 14 day): 20.6 s
- Bas ([…], time 14 day): 1%
- Eos ([…], time 14 day): 0.8%
- Fbg ([…], time 14 day): 220.6 mg/dL
- Hb ([…], time 14 day): 14.3 g/dL
- Ht ([…], time 14 day): 39.5%
- Lym ([…], time 14 day): 78.8%
- MCH ([…], time 14 day): 21.1 pg
- MCHC ([…], time 14 day): 36.2%
- MCV ([…], time 14 day): 58.1 fL
- Mono ([…], time 14 day): 2.8%
- Neu ([…], time 14 day): 16%
- PT ([…], time 14 day): 11.6 s
- Plat ([…], time 14 day): 116.1 x10_4/uL
- RBC ([…], time 14 day): 681.2 x10_4/ul
- Ret ([…], time 14 day): 4.3%
- WBC ([…], time 14 day): 121.8 x10_2/uL
- APTT ([…], time 28 day): 18.1 s
- Bas ([…], time 28 day): 0.8%
- Eos ([…], time 28 day): 1%
- Fbg ([…], time 28 day): 233.4 mg/dL
- Hb ([…], time 28 day): 15.5 g/dL
- Ht ([…], time 28 day): 41.4%
- Lym ([…], time 28 day): 80.2%
- MCH ([…], time 28 day): 20.9 pg
- MCHC ([…], time 28 day): 37.5%
- MCV ([…], time 28 day): 55.7 fL
- Mono ([…], time 28 day): 2%
- Neu ([…], time 28 day): 15.4%
- PT ([…], time 28 day): 11.5 s
- Plat ([…], time 28 day): 106.8 x10_4/uL
- RBC ([…], time 28 day): 743.4 x10_4/ul
- Ret ([…], time 28 day): 2.7%
- WBC ([…], time 28 day): 97 x10_2/uL
- KIDNEY_L ([…], time 7 day): 1.1 g
- KIDNEY_R ([…], time 7 day): 1 g
- KIDNEY_TOTAL ([…], time 7 day): 2.1 g
- KIDNEY_L ([…], time 14 day): 1.2 g
- KIDNEY_R ([…], time 14 day): 1.2 g
- KIDNEY_TOTAL ([…], time 14 day): 2.4 g
- KIDNEY_L ([…], time 28 day): 1.4 g
- KIDNEY_R ([…], time 28 day): 1.3 g
- KIDNEY_TOTAL ([…], time 28 day): 2.7 g
- LIVER ([…], time 7 day): 11.3 g
- LIVER ([…], time 14 day): 13.2 g
- LIVER ([…], time 28 day): 16.3 g
- ALP ([…], time 7 day): 1176 IU/L
- ALT ([…], time 7 day): 44.8 IU/L
- AST ([…], time 7 day): 81.6 IU/L
- BUN ([…], time 7 day): 15 mg/dL
- CRE ([…], time 7 day): 0.4 mg/dL
- DBIL ([…], time 7 day): 0.066 mg/dL
- GLC ([…], time 7 day): 195.4 mg/dL
- IP ([…], time 7 day): 6.9 mg/dL
- K ([…], time 7 day): 3.9 meq/L
- LDH ([…], time 7 day): 144.6 IU/L
- Na ([…], time 7 day): 141.4 meq/L
- PL ([…], time 7 day): 153.4 mg/dL
- RALB ([…], time 7 day): 3.4 g/dL
- TBIL ([…], time 7 day): 0.1 mg/dL
- TC ([…], time 7 day): 77.8 mg/dL
- TG ([…], time 7 day): 81.6 mg/dL
- TP ([…], time 7 day): 5.7 g/dL
- gamma-GTP ([…], time 7 day): 1.2 IU/L
- ALP ([…], time 14 day): 840.4 IU/L
- ALT ([…], time 14 day): 33.6 IU/L
- AST ([…], time 14 day): 70.2 IU/L
- BUN ([…], time 14 day): 17.2 mg/dL
- CRE ([…], time 14 day): 0.4 mg/dL
- DBIL ([…], time 14 day): 0.056 mg/dL
- GLC ([…], time 14 day): 215.8 mg/dL
- IP ([…], time 14 day): 7.5 mg/dL
- K ([…], time 14 day): 4.4 meq/L
- LDH ([…], time 14 day): 155.2 IU/L
- Na ([…], time 14 day): 142 meq/L
- PL ([…], time 14 day): 138 mg/dL
- RALB ([…], time 14 day): 3.4 g/dL
- TBIL ([…], time 14 day): 0.098 mg/dL
- TC ([…], time 14 day): 65.2 mg/dL
- TG ([…], time 14 day): 114 mg/dL
- TP ([…], time 14 day): 5.6 g/dL
- gamma-GTP ([…], time 14 day): 1.2 IU/L
- ALP ([…], time 28 day): 742.8 IU/L
- ALT ([…], time 28 day): 29.6 IU/L
- AST ([…], time 28 day): 58.6 IU/L
- BUN ([…], time 28 day): 18.2 mg/dL
- CRE ([…], time 28 day): 0.5 mg/dL
- DBIL ([…], time 28 day): 0.068 mg/dL
- GLC ([…], time 28 day): 214.4 mg/dL
- IP ([…], time 28 day): 6.7 mg/dL
- K ([…], time 28 day): 3.8 meq/L
- LDH ([…], time 28 day): 168.2 IU/L
- Na ([…], time 28 day): 141.6 meq/L
- PL ([…], time 28 day): 133.2 mg/dL
- RALB ([…], time 28 day): 3.6 g/dL
- TBIL ([…], time 28 day): 0.1 mg/dL
- TC ([…], time 28 day): 63 mg/dL
- TG ([…], time 28 day): 126.8 mg/dL
- TP ([…], time 28 day): 6.1 g/dL
- gamma-GTP ([…], time 28 day): 0.8 IU/L
